# Patent US12351580B2, “NLRP3 modulators” (Innate Tumor Immunity, Inc., priority 2017, dated 2025)
# Biological target: T1, TLR8 (Homo sapiens, UniProt Q9NR97)
# T1 construct: host or cells: HEK-Blue cells (human HEK) co-expressing TLR8 and an NF-kB/AP1-inducible SEAP reporter
# T1 sequence (Q9NR97 27-1041): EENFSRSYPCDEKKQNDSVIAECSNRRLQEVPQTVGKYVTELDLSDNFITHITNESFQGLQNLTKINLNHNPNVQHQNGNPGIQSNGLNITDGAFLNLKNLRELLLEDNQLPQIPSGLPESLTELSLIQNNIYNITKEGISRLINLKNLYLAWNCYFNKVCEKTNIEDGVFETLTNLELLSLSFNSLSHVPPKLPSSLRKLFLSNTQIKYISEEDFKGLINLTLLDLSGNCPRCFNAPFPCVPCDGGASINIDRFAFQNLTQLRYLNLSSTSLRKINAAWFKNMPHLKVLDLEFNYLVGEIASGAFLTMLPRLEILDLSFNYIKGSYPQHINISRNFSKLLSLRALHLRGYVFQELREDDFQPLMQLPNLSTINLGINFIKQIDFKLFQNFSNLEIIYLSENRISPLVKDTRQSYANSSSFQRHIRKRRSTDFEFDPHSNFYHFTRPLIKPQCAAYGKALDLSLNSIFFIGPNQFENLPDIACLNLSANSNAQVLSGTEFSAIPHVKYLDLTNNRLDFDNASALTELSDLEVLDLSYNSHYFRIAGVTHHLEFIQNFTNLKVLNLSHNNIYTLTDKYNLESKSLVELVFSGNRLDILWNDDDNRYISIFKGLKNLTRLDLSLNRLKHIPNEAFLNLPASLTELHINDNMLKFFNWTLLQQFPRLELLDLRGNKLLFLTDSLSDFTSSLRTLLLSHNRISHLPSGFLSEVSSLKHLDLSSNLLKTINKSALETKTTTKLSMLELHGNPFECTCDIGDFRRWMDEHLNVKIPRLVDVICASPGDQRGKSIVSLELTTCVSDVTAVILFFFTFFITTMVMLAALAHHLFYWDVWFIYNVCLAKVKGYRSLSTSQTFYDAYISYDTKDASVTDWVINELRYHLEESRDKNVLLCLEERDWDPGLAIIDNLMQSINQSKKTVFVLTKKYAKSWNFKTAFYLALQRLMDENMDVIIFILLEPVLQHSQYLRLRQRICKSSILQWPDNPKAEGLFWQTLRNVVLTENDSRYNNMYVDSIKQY
# Test: In vitro human TLR8 binding reporter assay (HEK-Blue, NF-kB/AP1-inducible SEAP)
# Type: cell-based
# Details: activity range symbols
# How it was run: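 Reporter cells are plated at 15,000 per well and rested 24 h. Next day, test compounds or DMSO are dispensed, followed by 18 h incubation at 37 °C, 5% CO2.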
row,EC50 [µM],Compound
1,1 to 20,"CCN(Cc1nc2c(N)nc3cc(-c4cc[nH]n4)ccc3c2[nH]1)C(=O)CCCc1ccccc1 [Compound 444, N-{[4-amino-7-(1H-pyrazol-3-yl)-1H-imidazo[4,5-c]quinolin-2-yl]methyl}-N-ethyl-4-phenylbutanamide]"
2,> 100,"CCN(Cc1nc2c(N)nc3cc(-c4cc[nH]n4)ccc3c2[nH]1)C(=O)c1cccn1C [Compound 446, N-{[4-amino-7-(1H-pyrazol-3-yl)-1H-imidazo[4,5-c]quinolin-2-yl]methyl}-N-ethyl-1-methyl-1H-pyrrole-2-carboxamide]"
3,1 to 20,"CCN(Cc1nc2c(N)nc3cc(-c4cc[nH]n4)ccc3c2[nH]1)C(=O)CCc1ccccc1 [Compound 447, N-{[4-amino-7-(1H-pyrazol-3-yl)-1H-imidazo[4,5-c]quinolin-2-yl]methyl}-N-ethyl-3-phenylpropanamide]"
4,20 to 100,"CCN(Cc1nc2c(N)nc3cc(-c4cc[nH]n4)ccc3c2[nH]1)C(=O)c1ccccc1Cl [Compound 449, N-{[4-amino-7-(1H-pyrazol-3-yl)-1H-imidazo[4,5-c]quinolin-2-yl]methyl}-2-chloro-N-ethylbenzamide]"
5,> 100,"CCN(Cc1nc2c(N)nc3cc(-c4cc[nH]n4)ccc3c2[nH]1)C(=O)c1ccncc1 [Compound 450, N-{[4-amino-7-(1H-pyrazol-3-yl)-1H-imidazo[4,5-c]quinolin-2-yl]methyl}-N-ethylpyridine-4-carboxamide]"
6,20 to 100,"CCN(Cc1nc2c(N)nc3cc(-c4cc[nH]n4)ccc3c2[nH]1)C(=O)c1cn(C)c2ccccc12 [Compound 451, N-{[4-amino-7-(1H-pyrazol-3-yl)-1H-imidazo[4,5-c]quinolin-2-yl]methyl}-N-ethyl-1-methyl-1H-indole-3-carboxamide]"

# Same assay, conditions: numeric bounds
row,EC50 [µM],Compound
1,> 62,"CCN(Cc1nc2c(N)nc3cc(-c4cc[nH]n4)ccc3c2[nH]1)C(=O)CCC(C)C [Compound 445, N-{[4-amino-7-(1H-pyrazol-3-yl)-1H-imidazo[4,5-c]quinolin-2-yl]methyl}-N-ethyl-4-methylpentanamide]"
2,> 62,"CCN(Cc1nc2c(N)nc3cc(-c4cc[nH]n4)ccc3c2[nH]1)C(=O)c1ccc(Cl)cc1 [Compound 452, N-{[4-amino-7-(1H-pyrazol-3-yl)-1H-imidazo[4,5-c]quinolin-2-yl]methyl}-4-chloro-N-ethylbenzamide]"
